Experimental data: PubChem BioAssay (NCI)
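Five concentrations, 48 hours, 96-well plates. Abbreviation: GI50, concentration required for 50% inhibition of growth. Definition used: TGI = concentration required for complete inhibition of growth.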

Assays:
Assay in all cases: NCI anticancer screen, dose series, 48 h
CAKI-1 renal = test system: CAKI-1 renal
HS 578T breast = test system: HS 578T breast
HT29 colon = test system: HT29 colon
KM12 colon = test system: KM12 colon
MCF7 breast = test system: MCF7 breast
MDA-MB-231 breast = test system: MDA-MB-231 breast
MDA-MB-435 = test system: MDA-MB-435
NCI-H23 lung = test system: NCI-H23 lung
SK-MEL-28 melanoma = test system: SK-MEL-28 melanoma
U251 CNS = test system: U251 CNS

Structure (SMILES)	TGI (CAKI-1 renal)	TGI (HS 578T breast)	TGI (HT29 colon)	TGI (KM12 colon)	TGI (MCF7 breast)	TGI (MDA-MB-231 breast)	TGI (MDA-MB-435)	TGI (NCI-H23 lung)	TGI (SK-MEL-28 melanoma)	TGI (U251 CNS)	GI50 (CAKI-1 renal)	GI50 (HS 578T breast)	GI50 (HT29 colon)	GI50 (KM12 colon)	GI50 (MCF7 breast)	GI50 (MDA-MB-231 breast)	GI50 (MDA-MB-435)	GI50 (NCI-H23 lung)	GI50 (SK-MEL-28 melanoma)	GI50 (U251 CNS)
CC(C)[C@@H]1ON1C(C)c1ccccc1 (stereo not given in full)	34.7 µM	> 100 µM	> 100 µM	> 100 µM	> 100 µM	> 100 µM	> 100 µM	> 100 µM	> 100 µM	> 100 µM										
OC(c1ccc(-c2ccccc2)cc1)C(F)(F)c1nc2ccccc2o1 (stereo not given)	61.2 µM	70.2 µM	> 100 µM	> 100 µM	> 100 µM	> 96.6 µM	> 100 µM	> 100 µM	> 100 µM	> 100 µM										
COC(=O)c1c(OC(C)=O)ccc2c1c1c(OC(C)=O)c3ccccc3c(OC(C)=O)c1n2Cc1ccccc1	27.9 µM	> 50 µM	31.5 µM	5.65 µM	> 50 µM	37.2 µM	27.9 µM	18.3 µM	33.5 µM	17.3 µM										
CC1=NN(C(=O)CSc2nc3ccc(I)cc3c(=O)n2Cc2ccccc2)C(=O)C1	> 100 µM	35.8 µM	> 100 µM	> 100 µM	61.3 µM	> 100 µM	75.2 µM	43.1 µM	> 100 µM	67.4 µM										
CCN(CC)Cc1sc2nc3ccccc3n2c1-c1ccc(OC)cc1	> 100 µM	> 100 µM	40.7 µM	> 100 µM	> 100 µM	> 100 µM	12.9 µM	> 100 µM	> 100 µM	> 100 µM										
Brc1ccc(-c2cn3ccncc3n2)cc1	> 100 µM	> 100 µM	> 100 µM	> 100 µM	> 100 µM	> 100 µM	> 100 µM	> 100 µM	> 100 µM	> 100 µM										
CC(C)(C)OC(=O)NCCC1CN(C(=O)c2ccccc2)c2ccccc21 (stereo not given)	> 100 µM	> 100 µM	63.7 µM	> 100 µM	85.5 µM	> 100 µM	84.7 µM	88.8 µM	91.2 µM	> 100 µM										
COc1nc(N)c(N=CC(OC(C)=O)C(OC(C)=O)C(COC(C)=O)OC(C)=O)c(=O)n1C (stereo not given)	> 100 µM	> 100 µM	> 100 µM	> 100 µM	> 100 µM	> 100 µM	> 100 µM	> 100 µM	> 100 µM	> 100 µM										
COc1ccc(N=C2C(=Nc3ccc(OC)cc3)N(c3ccccc3)C(=S)N2N=C=C2Sc3ccccc3N2C)cc1	> 100 µM	> 100 µM	> 100 µM	> 100 µM	> 100 µM	> 100 µM	> 100 µM	> 100 µM	> 100 µM	> 100 µM										
Cc1cc(O)c(C(C)C)cc1C1(c2cc(C(C)C)c(O)cc2C)OC(=O)c2ccccc21	18.4 µM	6.88 µM	5.84 µM	3.33 µM	3.6 µM	4.54 µM	3.01 µM	5.13 µM	3.07 µM	3.9 µM										
O=C(/C=C/c1csc(-c2ccccc2)n1)NCc1ccc(C(=O)NCc2ccccc2)cc1	> 100 µM	> 100 µM	> 100 µM	> 100 µM	> 100 µM	53.5 µM	> 100 µM	> 100 µM	> 100 µM	> 100 µM										
C#CCOCC12C=CC(O1)C1C(=O)OCC12 (stereo not given)	> 100 µM	> 100 µM	> 100 µM	> 100 µM	> 100 µM	> 100 µM	> 100 µM	> 100 µM	> 100 µM	> 100 µM										
C/C(=C/CC[C@]1(CO)CC[C@]2(CO)[C@H](CC[C@@H]3[C@@]4(C)CC[C@H](OC5OCC(O)C(O)C5OC5OC(CO)C(O)C(O)C5O)C(C)(C)[C@@H]4CC[C@]32C)[C@H]1O)CO (stereo not given in full)	> 100 µM	> 100 µM	> 100 µM	> 100 µM	> 100 µM	> 100 µM	> 100 µM	> 100 µM	> 100 µM	> 100 µM										
Cc1ccc(/C(O)=C/C(=O)C(=O)NN=C(c2ccccc2)c2ccccc2)cc1	> 100 µM	> 100 µM	> 100 µM	> 100 µM	> 100 µM	> 100 µM	> 100 µM	> 100 µM	> 100 µM	> 100 µM										
CC(C)(CC(O)C#N)/[N+]([O-])=[N+](\[O-])C(C)(C)CC(O)C#N (stereo not given)	30.4 µM	> 100 µM	> 100 µM	> 100 µM	65.5 µM	62.8 µM	> 100 µM	66.8 µM	> 100 µM	> 100 µM										
COc1ccc(-n2cnc3c(NC(CCSC)C(=O)O)ncnc32)cc1 (stereo not given)	> 100 µM	> 100 µM	> 100 µM	> 100 µM	> 100 µM	> 100 µM	> 100 µM	> 100 µM	> 100 µM	> 100 µM										

Structure (SMILES)	TGI (CAKI-1 renal)	TGI (HS 578T breast)	TGI (HT29 colon)	TGI (KM12 colon)	TGI (MCF7 breast)	TGI (MDA-MB-231 breast)	TGI (MDA-MB-435)	TGI (NCI-H23 lung)	TGI (SK-MEL-28 melanoma)	TGI (U251 CNS)	GI50 (CAKI-1 renal)	GI50 (HS 578T breast)	GI50 (HT29 colon)	GI50 (KM12 colon)	GI50 (MCF7 breast)	GI50 (MDA-MB-231 breast)	GI50 (MDA-MB-435)	GI50 (NCI-H23 lung)	GI50 (SK-MEL-28 melanoma)	GI50 (U251 CNS)
CC(C)C1=CC23CCC4C(C)(C(=O)O)CCCC4(C)C2CC1C1C(=O)N(c2ccc(C(=O)O)cc2)C(=O)C13 (stereo not given)	> 100 µM	> 100 µM	> 100 µM	> 100 µM	> 100 µM	> 100 µM	> 100 µM	> 100 µM	> 100 µM	> 100 µM										
Fc1ccccc1C1SCc2nc3cc4ccccc4cc3n21 (stereo not given)	> 100 µM	96.4 µM	> 100 µM	> 100 µM	> 100 µM	> 100 µM	> 100 µM	> 100 µM	> 100 µM	> 100 µM										
CC1OC(O[C@H]2/C=C/C=C/C=C/C=C/C=C/C=C/C=C/[C@H](C)[C@@H](O)[C@@H](C)[C@H](C)OC(=O)CC(O)CC(O)CCC(O)C(O)CC(O)C[C@]3(O)C[C@H](O)C(C(=O)O)C(C2)O3)C(O)[C@H](N)C1O (stereo not given in full)	11.7 µM	8.25 µM	14.7 µM	20.2 µM	19.7 µM	15.7 µM	3.69 µM	5.36 µM	3.98 µM	3.79 µM	3.16 µM	2.39 µM	4.3 µM	6.16 µM	5.02 µM	4.24 µM	2.01 µM	2.11 µM	2.07 µM	1.88 µM
CCC[C@H](C)C[C@H](C)C[C@H](C)/C=C(\C)[C@@H](O)[C@@H](C)C(=O)CC	37.4 µM	51.8 µM	37 µM	42 µM	42.7 µM	44.6 µM	35.7 µM	33.3 µM	33.4 µM	44.7 µM										
O=c1onc2c3ccccc3ncn12	> 100 µM	> 100 µM	> 100 µM	> 100 µM	> 100 µM	> 100 µM	> 100 µM	> 100 µM	> 100 µM	> 100 µM										
C[C@H]1C=C2[C@@H]3CC(C)(C(=O)O)CC[C@]3(C)CC[C@]2(C)[C@]2(C)CC[C@H]3C(C)(C)[C@@H](OC(=O)c4cccc5c(=O)c6ccccc6[nH]c45)CC[C@]3(C)[C@@H]12 (stereo not given in full)	> 100 µM	> 100 µM	> 100 µM	> 100 µM	> 100 µM	> 100 µM	> 100 µM	> 100 µM	> 100 µM	> 100 µM										
COc1ccc2oc(=N)c(C(=O)Nc3ccccn3)cc2c1	> 100 µM	> 100 µM	> 100 µM	> 100 µM	> 100 µM	> 100 µM	> 100 µM	> 100 µM	> 100 µM	> 100 µM										
c1ccc2c3c([nH]c2c1)C1CCCN1CC3 (stereo not given)	> 10 µM	> 10 µM	> 10 µM	> 10 µM	> 10 µM	> 10 µM	> 10 µM	> 10 µM	> 10 µM	> 10 µM										
CN(C)CCCN1c2ccccc2CCc2ccc([N+](=O)[O-])cc21	> 100 µM	> 100 µM	46.5 µM	33.8 µM	34.1 µM	> 100 µM	36 µM	> 100 µM	77.9 µM	> 100 µM										
CCN(c1cccc(NC(=S)Nc2ccccc2N(CC)c2cc(-c3ccccc3)no2)c1)c1cc(-c2ccccc2)no1	> 100 µM	> 100 µM	> 100 µM	> 100 µM	> 100 µM	> 100 µM	> 100 µM	> 100 µM	> 100 µM	> 100 µM										
O=[As](O)(O)c1ccc(N=Nc2ccc(O)cc2)cc1	> 100 µM	> 100 µM	> 100 µM	> 100 µM	> 100 µM	> 100 µM	> 100 µM	> 100 µM	> 100 µM	> 100 µM										
CCOC(=O)c1ccc(C(=O)C(C(C)=O)C(=O)OC(C)(C)C)[nH]1 (stereo not given)	> 100 µM	> 100 µM	> 100 µM	> 100 µM	> 100 µM	> 100 µM	> 100 µM	> 100 µM	> 100 µM	> 100 µM										
C=CCOC(=O)C1C2OC3(C(C(=O)OC)=C2C(=O)OC)c2ccccc2CCC13 (stereo not given)	> 10 µM	> 10 µM	> 10 µM	> 10 µM	> 10 µM	> 10 µM	> 10 µM	> 10 µM	> 10 µM	> 10 µM										
CC(C)(C)c1cc(C2COC(c3cc(C(C)(C)C)c(O)c(C(C)(C)C)c3)CO2)cc(C(C)(C)C)c1O (stereo not given)	> 100 µM	> 100 µM	> 100 µM	> 100 µM	> 100 µM	> 100 µM	> 100 µM	> 100 µM	> 100 µM	> 100 µM										
COC12c3ccccc3-c3ccccc3C1[C@H]1C(=O)OC(=O)[C@H]12 (stereo not given in full)	> 10 µM	> 10 µM	> 10 µM	> 10 µM	> 10 µM	> 10 µM	> 10 µM	> 10 µM	> 10 µM	> 10 µM										
COC(=O)C1=C(OC(=O)c2ccccc2)C(C(=O)OC)[C@]2(O)[C@@H](C(=O)OC)[C@H]1C[C@@H](c1ccccc1)[C@@H]2C(=O)OC (stereo not given in full)	> 100 µM	72.2 µM	30.7 µM	> 100 µM	15.7 µM	41.4 µM	10.8 µM	32.7 µM	76.3 µM	20.8 µM										
